Results reported in paper PMC9356039, “Multifunctional synthetic nano-chaperone for peptide folding and intracellular delivery” (Nature Communications, 2022).

Key:
[1] = CD spectroscopy, α-helicity by CONTIN-LL; type: physicochemical; settings: for helix1 / helix2 / helix % / strand1 / strand2 / total helix / turns / unordered: CONTINLL from CD spectra
Experimental: CD spectra were measured using a J-810 spectropolarimeter (JASCO, Japan). Spectra were recorded from 250 nm to 190 nm wavelength using a 1 cm path-length cuvette. Scans were repeated five times and averaged. Molar ellipticity was calculated per amino acid residue. The concentrations of SNCP and p53pep were 0.2 mg/mL and 20 μM, respectively. All sample suspensions were incubated at least for 2 days at room temperature before CD measurement. To perform temperature-dependent CD experiments, the spectra were recorded at 10 °C interval over a temperature range of 25 to 75 °C, with 30 min incubation time to reach equilibrium at each temperature. The α-helicity of peptides was calculated by using the CONTIN-LL algorithms provided from the DICHROWEB server.

CytC in HepG2 cells = assay: Western blot, cytochrome c protein level; type: cell-based, human
Experimental: Cells were lysed with Pro-PREP (IntronBio, Korea) according to the manufacturer’s protocol. The samples were centrifuged at 2000 × g and 4 °C for 15 min. The supernatant was collected to a 1.5 mL ep-tube and stored at −80 °C. After protein quantification using Pierce^TM BCA assay kit (Thermo Fisher Scientific, USA), the same amount of protein was diluted in water containing 5×loading buffer (Biosesang, Korea) and loaded on SDS-PAGE gel (Bio-rad, USA). After electrophoresis in Tris-Glycine SDS buffer at 80 V for 120 min, proteins in a gel were transferred to a nitrocellulose membrane (0.45 μm, Bio-rad, USA) in 1× Tris-Glycine Native Buffer (GenDEPOT, Korea) with 10% methanol at 90 V, and 4 °C for 90 min under stirring condition. The membrane was blocked with 5% milk to inhibit non-specific binding and immersed overnight at 4 °C in the presence of primary antibodies; GAPDH (1:2000, Abcam, USA), p53 (1:1000, Cell signaling, USA), MDM2 (1:1000, Cell signaling, USA), Bcl2 (1:1000, Cell signaling, USA) and CytC (1:1000, Cell signaling, USA). Anti-rabbit goat pAb, horseradish peroxidase (HRP)-linked antibody (1:5000, Abcam, USA) was used as a secondary antibody and the membrane was incubated for 1 h. After the reaction with the detection agent West Pico PLUS (Thermo Fisher Scientific, USA), bands of protein were monitored by a ImageQuant^TM LAS 4000 mini (GE Healthcare, USA). […]

HepG2 cells = assay: Cellular uptake and intracellular distribution, fluorescence microscopy; type: cell-based, human; settings: SNCPs@st-p53pep 0.02 mg/mL or st-p53pep 2 μM, serum-free medium 4 h
Experimental: Human liver cancer cell line HepG2 were grown in DMEM containing 10% FBS and 1% penicillin/streptomycin at 37 °C in a humidified atmosphere of 5% CO2. HepG2 cells (1.2 × 10^5 cells/well) were seeded in a 4-well glass plate for 24 h. Then, SNCPs@st-p53pep (0.02 mg/mL) and st-p53pep alone (2 μM) were added to each well in a serum-free medium for 4 h. After incubation, the cells were carefully rinsed with PBS, and the medium was replaced with a serum-containing fresh medium. After the nucleus was stained with Hoechst 33342 staining kit by manufacturer’s protocol, bright field and fluorescence images were obtained by using a DeltaVision Elite Microscopy System (GE Healthcare, USA). To observe the distribution of SNCP8 and st-p53pep in cells, TAMRA-labeled SNCP8@FAM-labeled st-p53pep (0.25 mg/mL) was treated in the same manner instead of SNCP8@st-p53pep. And then, the Mander’s overlap coefficient (MOC) was calculated in the Image J program (ver. 1.52a) via the JACoP plugin to identify co-localization between fluorescence signals over time. […] The cell viability was determined using cell counting kit-8 (CCK-8) assay by monitoring absorbance at 450 and 670 nm wavelength measured using a microplate reader (Molecular Devices, Inc., USA). The EC50 values of SNCPs@st-p53pep were determined by the logistic curve-fitting method with Origin (OriginLab, USA).

- helix1 ([1]; 25 ℃): 0.186
- helix2 ([1]; 25 ℃): 0.16
- helix % ([1]; 25 ℃): 34.6%
- strand1 ([1]; 25 ℃): 0.062
- strand2 ([1]; 25 ℃): 0.054
- total helix ([1]; 25 ℃): 0.346
- turns ([1]; 25 ℃): 0.123
- unordered ([1]; 25 ℃): 0.415
- helix1 ([1]; 35 ℃): 0.176
- helix2 ([1]; 35 ℃): 0.154
- helix % ([1]; 35 ℃): 33%
- strand1 ([1]; 35 ℃): 0.059
- strand2 ([1]; 35 ℃): 0.054
- total helix ([1]; 35 ℃): 0.33
- turns ([1]; 35 ℃): 0.092
- unordered ([1]; 35 ℃): 0.464
- helix1 ([1]; 45 ℃): 0.187
- helix2 ([1]; 45 ℃): 0.158
- helix % ([1]; 45 ℃): 34.5%
- strand1 ([1]; 45 ℃): 0.052
- strand2 ([1]; 45 ℃): 0.05
- total helix ([1]; 45 ℃): 0.345
- turns ([1]; 45 ℃): 0.11
- unordered ([1]; 45 ℃): 0.444
- helix1 ([1]; 55 ℃): 0.186
- helix2 ([1]; 55 ℃): 0.147
- helix % ([1]; 55 ℃): 33.3%
- strand1 ([1]; 55 ℃): 0.057
- strand2 ([1]; 55 ℃): 0.049
- total helix ([1]; 55 ℃): 0.333
- turns ([1]; 55 ℃): 0.117
- unordered ([1]; 55 ℃): 0.445
- helix1 ([1]; 65 ℃): 0.088
- helix2 ([1]; 65 ℃): 0.108
- helix % ([1]; 65 ℃): 19.6%
- strand1 ([1]; 65 ℃): 0.14
- strand2 ([1]; 65 ℃): 0.096
- total helix ([1]; 65 ℃): 0.196
- turns ([1]; 65 ℃): 0.134
- unordered ([1]; 65 ℃): 0.433
- helix1 ([1]; 75 ℃): 0.041
- helix2 ([1]; 75 ℃): 0.06
- helix % ([1]; 75 ℃): 10.1%
- strand1 ([1]; 75 ℃): 0.132
- strand2 ([1]; 75 ℃): 0.079
- total helix ([1]; 75 ℃): 0.101
- turns ([1]; 75 ℃): 0.348
- unordered ([1]; 75 ℃): 0.341
- α-helicity ([1]; extracted peptide after re-encapsulation in SNCP8): 73.4%
- α-helicity ([1]; peptide extracted from SNCP8@st-p53pep): 34.6%
SMILES: CC(C)C[C@@H]1NC(=O)[C@H](CC(C)C)NC(=O)[C@H](CCCNC(=N)N)NC(=O)[C@H](Cc2c[nH]c3ccccc23)NC(=O)[C@H](CC(C)C)NC(=O)[C@H](CC(N)=O)NC(=O)[C@H](NC(=O)[C@H](Cc2ccccc2)NC(=O)[C@@H](NC(=O)[C@H](CCC(N)=O)NC(=O)[C@H](CCC(N)=O)NC(=O)[C@H](CO)NC(=O)[C@H](CCC(N)=O)NC(=O)CNC(=O)CNC(=O)c2ccc3c(c2)C(=O)OC32c3ccc(O)cc3Oc3cc(O)ccc32)[C@@H](C)O)CCCCNC(=O)CCc2cn(nn2)CCC[C@@H](C(=O)N[C@@H](CCC(N)=O)C(=O)N[C@@H](CC(N)=O)C(N)=O)NC1=O [st-p53pep]
- CytC level relative to Control (CytC in HepG2 cells; /GAPDH, Control = 1): 1.304
- CytC rel. (/GAPDH) (CytC in HepG2 cells; intensity divided by GAPDH): 0.81
- cellular uptake: green FAM fluorescence in cells (in words) (HepG2 cells): No fluorescence
